Laboratory results taken from patent US20240025858A1, “CANNABINOID DERIVATIVES AS […] ACTIVE COMPOUNDS AND METHOD OF PREPARATION THEREOF” (GW Research Limited, priority 2020, published 2024).

Legend:
[1] = test system: mouse model of generalised seizure; experiment: MEST (maximal electroshock seizure threshold) test in the mouse; settings: for % change from vehicle: change in CC50
Method: The efficacy of the cannabinoid derivative of 1 was tested in a mouse model of generalised seizure, the maximal electroshock seizure threshold (MEST) test.
The protocol according to Example 2 was followed, with the current lowered or raised in intervals of 5 mA instead of log scale intervals.

[2] = test system: mouse model of generalised seizure; experiment: mini-MEST (maximal electroshock seizure threshold test, minimal sample sizes) in the mouse; settings: for change in vivo at 50 mg/kg / change in vivo at 5 mg/kg: Mus musculus, ip, change in CC50; for change in vivo at 50 mg/kg: 0.5 h, read-out: % change from vehicle, 50 mg/kg i.p., 30 min post dose; for change in vivo at 5 mg/kg: 0.25 h, read-out: % change from vehicle, 5 mg/kg i.p., 15 min post dose
Method: In the MEST test the ability of a drug to alter the seizure threshold current required to induce hind limb tonic extensor convulsions is measured according to an “up and down” method of shock titration (Kimball et al., 1957).
The ability of a test compound to alter the stimulus intensity, expressed as current (mA), required to induce the presence of tonic hind limb extensor convulsions, is assessed in the MEST.
Naïve mice were acclimatised to the procedure room in their home cages for up to 7 days, with food and water available ad libitum.
All animals were weighed at the beginning of the study and randomly assigned to treatment groups based on a mean distribution of body weight across groups.
The first animal within a treatment group was given a shock at the expected or estimated CC50 current. For subsequent animals, the current was lowered or raised depending on the convulsions outcome from the preceding animal in log scale intervals.
Data generated from each treatment group were used to calculate the CC50 ±SEM values for the treatment group.
The test compounds used were 1, 2, 3, 4 and 5. Test compounds were administered at 5-50 mg/kg (i.p.) in a 1:2:17 ethanol:solutol:saline formulation.
The data for each treatment group were recorded as the number of +'s and 0's at each current level employed and this information is then used to calculate the CC50 value (current required for 50% of the animals to show seizure behaviour) ±standard error.
Test compound effects were also calculated as percentage change in CC50 from the vehicle control group.
The test compounds used were 12, 42 and 43. Test compounds were administered at 5-50 mg/kg (i.p.) in a 1:2:17 ethanol:solutol:saline formulation.
The test compounds used were 6, 13, 22, 26, 28, 33, 38 and 46. Test compounds were administered at 5-50 mg/kg (i.p.) in a 1:2:17 ethanol:solutol:saline formulation.
The test compound used was 36. Test compound was administered at 5 and 50 mg/kg (i.p.) in a 1:2:17 ethanol:solutol:saline formulation.

[3] = 5 mg/kg i.p., test 15 min post dose
[4] = 50 mg/kg i.p., test 30 min post dose

| SMILES | CC50 +/− SEM [2, 4] [mA] | change in vivo at 50 mg/kg [2] [%] | CC50 +/− SEM [2, 3] [mA] | change in vivo at 5 mg/kg [2] [%] | other results |
| --- | --- | --- | --- | --- | --- |
| C=C(C)[C@@H]1CCC(C)=C[C@H]1c1c(O)cc(-c2cnn(CC(C)(C)O)c2)cc1O [Compound 1, (1′R,2′R)-4-(1-(2-Hydroxy-2-methylpropyl)-1H-pyrazol-4-yl)-5′-methyl-2′-(prop-1-en-2-yl)-1′,2′,3′,4′-tetrahydro-[1,1′-biphenyl]-2,6-diol] | 119.5 | 388 | – | – | % change from vehicle ([1]; 1 mg/kg i.p., 15 min post dose): 10%; CC50 +/− SEM ([1]; 1 mg/kg i.p., test 15 min post dose): 28.5 mA; % change from vehicle ([1]; 5 mg/kg i.p., 15 min post dose): 21%; CC50 +/− SEM [1, 3]: 31.5 mA; % change from vehicle ([1]; 50 mg/kg i.p., 30 min post dose): 213%; CC50 +/− SEM [1, 4]: 81.5 mA |
| C=C(C)[C@@H]1CCC(C)=C[C@H]1c1c(O)cc(-c2cnn(CCO)c2)cc1O [Compound 2, (1′R,2′R)-4-(1-(2-Hydroxyethyl)-1H-pyrazol-4-yl)-5′-methyl-2′-(prop-1-en-2-yl)-1′,2′,3′,4′-tetrahydro-[1,1′-biphenyl]-2,6-diol] | <35.0 | < 40 | 32.5 | 30 | – |
| C=C(C)[C@@H]1CCC(C)=C[C@H]1c1c(O)cc(-c2cn(C)nc2C)cc1O [Compound 3, (1′R,2′R)-4-(1,3-Dimethyl-1H-pyrazol-4-yl)-5′-methyl-2′-(prop-1-en-2-yl)-1′,2′,3′,4′-tetrahydro-[1,1′-biphenyl]-2,6-diol] | 62.5 | 150 | 27.5 | 10 | – |
| C=C(C)[C@@H]1CCC(C)=C[C@H]1c1c(O)cc(-c2cn(C)nn2)cc1O [Compound 4, (1′R,2′R)-5′-Methyl-4-(1-methyl-1H-1,2,3-triazol-4-yl)-2′-(prop-1-en-2-yl)-1′,2′,3′,4′-tetrahydro-[1, 1′-biphenyl]-2,6-diol] | 70.5 | 213 | 28.3 | 26 | – |
| C=C(C)[C@@H]1CCC(C)=C[C@H]1c1c(O)cc(-c2cnn(CCO)c2C)cc1O [Compound 5, (1′R,2′R)-4-(1-(2-Hydroxyethyl)-5-methyl-1H-pyrazol-4-yl)-5′-methyl-2′-(prop-1-en-2-yl)-1′,2′,3′,4′-tetrahydro-[1,1′-biphenyl]-2,6-diol] | 60.5 | 169 | – | – | – |
| C=C(C)[C@@H]1CCC(C)=C[C@H]1c1c(O)cc(-c2cnn(CCN(C)C)c2)cc1O [Compound 6, (1′R,2′R)-4-(1-(2-(Dimethylamino)ethyl)-1H-pyrazol-4-yl)-5′-methyl-2′-(prop-1-en-2-yl)-1′,2′,3′,4′-tetrahydro-[1,1′-biphenyl]-2,6-diol] | <43 | < 76 | – | – | – |
| C=C(C)[C@@H]1CCC(C)=C[C@H]1c1c(O)cc(-c2ccc(OC)nc2)cc1O [Compound 12, (1′R,2′R)-4-(6-Methoxypyridin-3-yl)-5′-methyl-2′-(prop-1-en-2-yl)-1′,2′,3′,4′-tetrahydro-[1,1′-biphenyl]-2,6-diol] | >131 | > 394 | 25.0 | -6 | convulsions observed ([2]; 50 mg/kg, CC50 not reached): no animals had any convulsions |
| C=C(C)[C@@H]1CCC(C)=C[C@H]1c1c(O)cc(-c2cnn(CCN3CCOCC3)c2)cc1O [Compound 13, (1′R,2′R)-5′-Methyl-4-(1-(2-morpholinoethyl)-1H-pyrazol-4-yl)-2′-(prop-1-en-2-yl)-1′,2′,3′,4′-tetrahydro-[1,1′-biphenyl]-2,6-diol] | 37.2 | 58 | 25.0 | 6 | – |
| C=C(C)[C@@H]1CCC(C)=C[C@H]1c1c(O)cc(-c2cnn(CC(C)O)c2)cc1O (stereo partly drawn) [Compound 22, (1′R,2′R)-4-(1-(2-Hydroxypropyl)-1H-pyrazol-4-yl)-5′-methyl-2′-(prop-1-en-2-yl)-1′,2′,3′,4′-tetrahydro-[1,1′-biphenyl]-2,6-diol] | 66.0 | 149 | 33.0 | 25 | – |
| C=C(C)[C@@H]1CCC(C)=C[C@H]1c1c(O)cc(-n2cnc(C)n2)cc1O [Compound 26, (1′R,2′R)-5′-Methyl-4-(3-methyl-1H-1,2,4-triazol-1-yl)-2′-(prop-1-en-2-yl)-1′,2′,3′,4′-tetrahydro-[1,1′-biphenyl]-2,6-diol] | 75.0 | 233 | – | – | – |
| C=C(C)[C@@H]1CCC(C)=C[C@H]1c1c(O)cc(-c2cn(C)cn2)cc1O [Compound 28, (1′R,2′R)-5′-Methyl-4-(1-methyl-1H-imidazol-4-yl)-2′-(prop-1-en-2-yl)-1′,2′,3′,4′-tetrahydro-[1,1′-biphenyl]-2,6-diol] | 35.5 | 58 | 25.0 | 11 | – |
| C=C(C)[C@@H]1CCC(C)=C[C@H]1c1c(O)cc(-c2ncn(C)n2)cc1O [Compound 33, (1′R,2′R)-5′-Methyl-4-(1-methyl-1H-1,2,4-triazol-3-yl)-2′-(prop-1-en-2-yl)-1′,2′,3′,4′-tetrahydro-[1, 1′-biphenyl]-2,6-diol] | 53.5 | 138 | – | – | – |
| CC1=C[C@@H](c2c(O)cc(-c3cnn(C)c3)cc2O)[C@H](C(C)C)CC1 [Compound 36, (1′S,2′S)-2′-Isopropyl-5′-methyl-4-(1-methyl-1H-pyrazol-4-yl)-1′,2′,3′,4′-tetrahydro-[1,1′-biphenyl]-2,6-diol] | 70.5 | 176 | 29.0 | 14 | CC50 value compared to vehicle ([2]; 5 and 50 mg/kg i.p., between 15 and 30 minutes before the test): statistically significant |
| C=C(C)[C@@H]1CCC(C)=C[C@H]1c1c(O)cc(-c2cnn(C3COC3)c2)cc1O [Compound 38, (1′R,2′R)-5′-Methyl-4-(1-(oxetan-3-yl)-1H-pyrazol-4-yl)-2′-(prop-1-en-2-yl)-11,2′,3′,4′-tetrahydro-[1, 1′-biphenyl]-2,6-diol] | 79.5 | 200 | – | – | – |
| C=C(C)[C@@H]1CCC(C)=C[C@H]1c1c(O)cc(-c2ccn(C)c(=O)c2)cc1O [Compound 42, 4-((1′R,2′R)-2,6-dihydroxy-5′-methyl-2′-(prop-1-en-2-yl)-1′,2′,3′,4′-tetrahydro-[1,1′-biphenyl]-4-yl)-1-methylpyridin-2(1H)-one] | 67.5 | 132 | – | – | – |
| C=C(C)[C@@H]1CCC(C)=C[C@H]1c1c(O)cc(-c2cccnc2OC)cc1O [Compound 43, (1′R,2′R)-4-(2-methoxypyridin-3-yl)-5′-methyl-2′-(prop-1-en-2-yl)-1′,2′,3′,4′-tetrahydro-[1,1′-biphenyl]-2,6-diol] | 58.2 | 96 | – | – | – |
| C=C(C)[C@@H]1CCC(C)=C[C@H]1c1c(O)cc(N(C)c2cccnc2)cc1O [Compound 46, (1′R,2′R)-5′-Methyl-4-(methyl(pyridin-3-yl)amino)-2′-(prop-1-en-2-yl)-1′,2′,3′,4′-tetrahydro-[1, 1′-biphenyl]-2,6-diol] | 61.5 | 132 | – | – | – |
| CN1C(=O)CN=C(c2ccccc2)c2cc(Cl)ccc21 [Diazepam, diazepam, reference compound] | – | – | – | – | % change from vehicle ([1]; diazepam 2.5 mg/kg i.p., 30 min post dose): 224% |
